How the values were obtained:
[1] = tested on: Echinochloa oryzoides (Ard.) Fritsch.; assay: Preemergence weed control under flooded paddy conditions, ECHORC (Watergrass (Calif.)); assay type: in vivo; conditions: flooded paddy; for herbicidal effect rating, ECHORC / ECHORC herbicidal effect rating: rated three to four weeks after treatment; for ECHORC: herbicidal effect rating 0-9, three to four weeks after treatment; for herbicidal effect rating, ECHORC: meaning of each grade not given here
[2] = tested on: Cyperus iria; assay: Preemergence weed control under flooded paddy conditions, CYPIR (Rice Flatsedge); assay type: in vivo; conditions: flooded paddy; for herbicidal effect rating, CYPIR / CYPIR herbicidal effect rating: rated three to four weeks after treatment; for CYPIR: herbicidal effect rating 0-9, three to four weeks after treatment; for herbicidal effect rating, CYPIR: meaning of each grade not given here
[3] = tested on: Cyperus serotinus, Rottb.; assay: Preemergence weed control under flooded paddy conditions, CYPSE (Flatsedge); assay type: in vivo; conditions: for herbicidal effect rating, CYPSE / CYPSE herbicidal effect rating: rated three to four weeks after treatment; for CYPSE: herbicidal effect rating 0-9, three to four weeks after treatment; for herbicidal effect rating, CYPSE: meaning of each grade not given here
[4] = tested on: Monochoria vaginalis, Presl.; assay: Preemergence weed control under flooded paddy conditions, MOOVA (Monochoria); assay type: in vivo; conditions: flooded paddy; for herbicidal effect rating, MOOVA / MOOVA herbicidal effect rating: rated three to four weeks after treatment; for MOOVA: herbicidal effect rating 0-9, three to four weeks after treatment; for herbicidal effect rating, MOOVA: meaning of each grade not given here
[5] = tested on: Sagittaria pygmaea, L.; assay: Preemergence weed control under flooded paddy conditions, SAGPY (Arrowhead (Pygmaea)); assay type: in vivo; conditions: flooded paddy; for herbicidal effect rating, SAGPY / SAGPY herbicidal effect rating: rated three to four weeks after treatment; for SAGPY: herbicidal effect rating 0-9, three to four weeks after treatment; for herbicidal effect rating, SAGPY: meaning of each grade not given here
[6] = tested on: Oryza sativa, (L.) Tebonnet; assay: Rice tolerance to post-transplant applications under flooded paddy conditions (Example 187), ORYSAT (Rice, Tebonnet); conditions: for herbicidal effect rating ORYSAT / ORYSAT herbicidal effect rating: rated three to four weeks after treatment; for ORYSAT: herbicidal effect rating 0-9, three to four weeks after treatment; for herbicidal effect rating ORYSAT: meaning of each grade not given here
[7] = Rate 0.0320 kg/ha, preemergence
[8] = Rate 0.0620 kg/ha, preemergence
[9] = Rate 0.1250 kg/ha, preemergence
[10] = Rate 0.2500 kg/ha, preemergence
[11] = Rate 0.5000 kg/ha, preemergence
[12] = Rate 0.0320 kg/ha, preemergence weeds
[13] = Rate 0.0620 kg/ha, preemergence weeds
[14] = Rate 0.1250 kg/ha, preemergence weeds
[15] = Rate 0.2500 kg/ha, preemergence weeds
[16] = 0.0320 kg/ha, preemergence weeds
[17] = 0.0620 kg/ha, preemergence weeds
[18] = 0.1250 kg/ha, preemergence weeds
[19] = 0.2500 kg/ha, preemergence weeds

## Cc1ccc(OC(C)(C)C(=O)NS(C)(=O)=O)c(-c2nsc3ccc(-n4c(=O)cc(C(F)(F)F)n(C)c4=O)cc23)c1 [Example 576, Propionamide, 2-{{2-{5-[3,6-dihydro-3-methyl-2,6-dioxo-4-(trifluoromethyl)-1(2H)-pyrimidinyl]-1,2-benzisothiazol-3-yl}-p-tolyl}oxy}-2-methyl-N-(methylsulfonyl)-]
[1]; [7]
  herbicidal effect rating, ECHORC: 6.0
[1]; [8]
  herbicidal effect rating, ECHORC: 7.0
[1]; [9]
  herbicidal effect rating, ECHORC: 7.0
[1]; [10]
  herbicidal effect rating, ECHORC: 9.0
[2]; [7]
  herbicidal effect rating, CYPIR: 0.0
[2]; [8]
  herbicidal effect rating, CYPIR: 3.0
[2]; [9]
  herbicidal effect rating, CYPIR: 3.0
[2]; [10]
  herbicidal effect rating, CYPIR: 5.0
[3]; [7]
  herbicidal effect rating, CYPSE: 0.0
[3]; [8]
  herbicidal effect rating, CYPSE: 0.0
[3]; [9]
  herbicidal effect rating, CYPSE: 0.0
[3]; [10]
  herbicidal effect rating, CYPSE: 4.0
[4]; [7]
  herbicidal effect rating, MOOVA: 7.0
[4]; [8]
  herbicidal effect rating, MOOVA: 9.0
[4]; [9]
  herbicidal effect rating, MOOVA: 9.0
[4]; [10]
  herbicidal effect rating, MOOVA: 9.0
[5]; [7]
  herbicidal effect rating, SAGPY: 0.0
[5]; [8]
  herbicidal effect rating, SAGPY: 0.0
[5]; [9]
  herbicidal effect rating, SAGPY: 3.0
[5]; [10]
  herbicidal effect rating, SAGPY: 4.0
[6]; Rate 0.0320 kg/ha
  herbicidal effect rating ORYSAT: 4.0
[6]; Rate 0.0620 kg/ha
  herbicidal effect rating ORYSAT: 7.0
[6]; Rate 0.1250 kg/ha
  herbicidal effect rating ORYSAT: 7.0
[6]; Rate 0.2500 kg/ha
  herbicidal effect rating ORYSAT: 9.0

## Cc1ccc(OCC(=O)NS(=O)(=O)c2c(C)noc2C)c(-c2nsc3ccc(-n4c(=O)cc(C(F)(F)F)n(C)c4=O)cc23)c1 [Example 270, Acetamide, 2-{{2-{5-[3,6-dihydro-3-methyl-2,6-dioxo-4-(trifluoromethyl)-1(2H)-pyrimidinyl]-1,2-benzisothiazol-3-yl}-p-tolyl}oxy}-N-[(3,5-dimethylisoxazol-4-yl)sulfonyl]-]
[1]; [7]
  ECHORC herbicidal effect rating: 1.3
[1]; [8]
  ECHORC herbicidal effect rating: 2.7
[1]; [9]
  ECHORC herbicidal effect rating: 4.3
[1]; [10]
  ECHORC herbicidal effect rating: 9.0
[1]; [11]
  ECHORC herbicidal effect rating: 9.0
[2]; [7]
  CYPIR herbicidal effect rating: 8.0
[2]; [8]
  CYPIR herbicidal effect rating: 9.0
[2]; [9]
  CYPIR herbicidal effect rating: 9.0
[2]; [10]
  CYPIR herbicidal effect rating: 9.0
[2]; [11]
  CYPIR herbicidal effect rating: 9.0
[3]; [7]
  CYPSE herbicidal effect rating: 0.0
[3]; [8]
  CYPSE herbicidal effect rating: 0.0
[3]; [9]
  CYPSE herbicidal effect rating: 7.0
[3]; [10]
  CYPSE herbicidal effect rating: 9.0
[3]; [11]
  CYPSE herbicidal effect rating: 3.0
[4]; [7]
  MOOVA herbicidal effect rating: 9.0
[4]; [8]
  MOOVA herbicidal effect rating: 9.0
[4]; [9]
  MOOVA herbicidal effect rating: 9.0
[4]; [10]
  MOOVA herbicidal effect rating: 9.0
[4]; [11]
  MOOVA herbicidal effect rating: 9.0
[5]; [7]
  SAGPY herbicidal effect rating: 0.0
[5]; [8]
  SAGPY herbicidal effect rating: 0.0
[5]; [9]
  SAGPY herbicidal effect rating: 0.0
[5]; [10]
  SAGPY herbicidal effect rating: 0.0
[5]; [11]
  SAGPY herbicidal effect rating: 5.0
[6]; Rate 0.0320 kg/ha
  ORYSAT herbicidal effect rating: 4.0
[6]; Rate 0.0620 kg/ha
  ORYSAT herbicidal effect rating: 4.0
[6]; Rate 0.1250 kg/ha
  ORYSAT herbicidal effect rating: 7.0
[6]; Rate 0.2500 kg/ha
  ORYSAT herbicidal effect rating: 8.0
[6]; Rate 0.5000 kg/ha
  ORYSAT herbicidal effect rating: 2.0

## Cn1c(C(F)(F)F)cc(=O)n(-c2ccc3snc(C(Br)C#N)c3c2)c1=O (stereo not drawn) [Example 264, 1,2-Benzisothiazole-3-acetonitrile, alpha-bromo-5-[3,6-dihydro-3-methyl-2,6-dioxo-4-(trifluoromethyl)-1(2H)-pyrimidinyl]-]
[1]; [7]
  ECHORC herbicidal effect rating: 0.0
[1]; [8]
  ECHORC herbicidal effect rating: 0.0
[1]; [9]
  ECHORC herbicidal effect rating: 0.0
[1]; [10]
  ECHORC herbicidal effect rating: 2.0
[2]; [7]
  CYPIR herbicidal effect rating: 5.0
[2]; [8]
  CYPIR herbicidal effect rating: 5.0
[2]; [9]
  CYPIR herbicidal effect rating: 5.0
[2]; [10]
  CYPIR herbicidal effect rating: 5.0
[3]; [7]
  CYPSE herbicidal effect rating: 4.0
[3]; [8]
  CYPSE herbicidal effect rating: 4.0
[3]; [9]
  CYPSE herbicidal effect rating: 9.0
[3]; [10]
  CYPSE herbicidal effect rating: 9.0
[4]; [7]
  MOOVA herbicidal effect rating: 9.0
[4]; [8]
  MOOVA herbicidal effect rating: 9.0
[4]; [9]
  MOOVA herbicidal effect rating: 9.0
[4]; [10]
  MOOVA herbicidal effect rating: 9.0
[5]; [7]
  SAGPY herbicidal effect rating: 0.0
[5]; [8]
  SAGPY herbicidal effect rating: 0.0
[5]; [9]
  SAGPY herbicidal effect rating: 0.0
[5]; [10]
  SAGPY herbicidal effect rating: 0.0
[6]; Rate 0.0320 kg/ha
  ORYSAT herbicidal effect rating: 0.0
[6]; Rate 0.0620 kg/ha
  ORYSAT herbicidal effect rating: 0.0
[6]; Rate 0.1250 kg/ha
  ORYSAT herbicidal effect rating: 0.0
[6]; Rate 0.2500 kg/ha
  ORYSAT herbicidal effect rating: 5.0

## CONC(=O)COc1ccc(C)cc1-c1nsc2ccc(-n3c(=O)cc(C(F)(F)F)n(C)c3=O)cc12 [Example 316, Acetamide, 2-{{2-{5-[3,6-dihydro-3-methyl-2,6-dioxo-4-(trifluoromethyl)-1(2H)-pyrimidinyl]-1,2-benzisothiazol-3-yl}-p-tolyl}oxy}-N-methoxy-]
[1]; [12]
  herbicidal effect rating, ECHORC: 5.5
[1]; [13]
  herbicidal effect rating, ECHORC: 9.0
[1]; [14]
  herbicidal effect rating, ECHORC: 9.0
[1]; [15]
  herbicidal effect rating, ECHORC: 9.0
[2]; [12]
  herbicidal effect rating, CYPIR: 8.5
[2]; [13]
  herbicidal effect rating, CYPIR: 7.5
[2]; [14]
  herbicidal effect rating, CYPIR: 7.5
[2]; [15]
  herbicidal effect rating, CYPIR: 6.0
[3]; [12]
  herbicidal effect rating, CYPSE: 1.0
[3]; [13]
  herbicidal effect rating, CYPSE: 4.5
[3]; [14]
  herbicidal effect rating, CYPSE: 4.5
[3]; [15]
  herbicidal effect rating, CYPSE: 0.0
[4]; [12]
  herbicidal effect rating, MOOVA: 8.0
[4]; [13]
  herbicidal effect rating, MOOVA: 9.0
[4]; [14]
  herbicidal effect rating, MOOVA: 9.0
[4]; [15]
  herbicidal effect rating, MOOVA: 9.0
[5]; [12]
  herbicidal effect rating, SAGPY: 0.0
[5]; [13]
  herbicidal effect rating, SAGPY: 3.0
[5]; [14]
  herbicidal effect rating, SAGPY: 1.0
[5]; [15]
  herbicidal effect rating, SAGPY: 3.0
[6]; Rate 0.0320 kg/ha
  herbicidal effect rating ORYSAT: 4.5
[6]; Rate 0.0620 kg/ha
  herbicidal effect rating ORYSAT: 4.0
[6]; Rate 0.1250 kg/ha
  herbicidal effect rating ORYSAT: 4.5
[6]; Rate 0.2500 kg/ha
  herbicidal effect rating ORYSAT: 4.0

## Cn1c(C(F)(F)F)cc(=O)n(-c2ccc3snc(C(=O)NS(=O)(=O)Cc4ccccc4[N+](=O)[O-])c3c2)c1=O [Example 404, 1,2-Benzisothiazole-3-carboxamide, 5-[3,6-dihydro-3-methyl-2,6-dioxo-4-(trifluoromethyl)-1(2H)-pyrimidinyl]-N-[(o-nitrobenzyl)sulfonyl]-]
[1]; [16]
  ECHORC: 0.0
[1]; [17]
  ECHORC: 3.0
[1]; [18]
  ECHORC: 6.0
[1]; [19]
  ECHORC: 7.0
[2]; [16]
  CYPIR: 0.0
[2]; [17]
  CYPIR: 0.0
[2]; [18]
  CYPIR: 2.0
[2]; [19]
  CYPIR: 6.0
[3]; [16]
  CYPSE: 0.0
[3]; [17]
  CYPSE: 0.0
[3]; [18]
  CYPSE: 0.0
[3]; [19]
  CYPSE: 0.0
[4]; [16]
  MOOVA: 4.0
[4]; [17]
  MOOVA: 5.0
[4]; [18]
  MOOVA: 5.0
[4]; [19]
  MOOVA: 6.0
[5]; [16]
  SAGPY: 0.0
[5]; [17]
  SAGPY: 0.0
[5]; [18]
  SAGPY: 0.0
[5]; [19]
  SAGPY: 0.0
[6]; 0.0320 kg/ha
  ORYSAT: 0.0
[6]; 0.0620 kg/ha
  ORYSAT: 0.0
[6]; 0.1250 kg/ha
  ORYSAT: 0.0
[6]; 0.2500 kg/ha
  ORYSAT: 2.0

## Cn1c(C(F)(F)F)cc(=O)n(-c2ccc3snc(C(=O)NS(=O)(=O)c4ccccc4)c3c2)c1=O [Example 352, 1,2-Benzisothiazole-3-carboxamide, 5-[3,6-dihydro-3-methyl-2,6-dioxo-4-(trifluoromethyl)-1(2H)-pyrimidinyl]-N-(phenylsulfonyl)-]
[1]; [7]
  herbicidal effect rating, ECHORC: 2.5
[1]; [8]
  herbicidal effect rating, ECHORC: 4.0
[1]; [9]
  herbicidal effect rating, ECHORC: 6.5
[1]; [10]
  herbicidal effect rating, ECHORC: 9.0
[2]; [7]
  herbicidal effect rating, CYPIR: 2.0
[2]; [8]
  herbicidal effect rating, CYPIR: 6.5
[2]; [9]
  herbicidal effect rating, CYPIR: 7.5
[2]; [10]
  herbicidal effect rating, CYPIR: 9.0
[3]; [7]
  herbicidal effect rating, CYPSE: 0.0
[3]; [8]
  herbicidal effect rating, CYPSE: 0.0
[3]; [9]
  herbicidal effect rating, CYPSE: 1.0
[3]; [10]
  herbicidal effect rating, CYPSE: 0.0
[4]; [7]
  herbicidal effect rating, MOOVA: 6.0
[4]; [8]
  herbicidal effect rating, MOOVA: 9.0
[4]; [9]
  herbicidal effect rating, MOOVA: 9.0
[4]; [10]
  herbicidal effect rating, MOOVA: 9.0
[5]; [7]
  herbicidal effect rating, SAGPY: 2.5
[5]; [8]
  herbicidal effect rating, SAGPY: 5.0
[5]; [9]
  herbicidal effect rating, SAGPY: 9.0
[5]; [10]
  herbicidal effect rating, SAGPY: 9.0
[6]; Rate 0.0320 kg/ha
  herbicidal effect rating ORYSAT: 0.5
[6]; Rate 0.0620 kg/ha
  herbicidal effect rating ORYSAT: 1.0
[6]; Rate 0.1250 kg/ha
  herbicidal effect rating ORYSAT: 2.5
[6]; Rate 0.2500 kg/ha
  herbicidal effect rating ORYSAT: 3.0
